Experimental data from patent US20220387604A1, “SELECTIVE DUAL HISTONE DEACETYLASE 6/8 (HDAC6/8) DEGRADERS AND METHODS OF USE THEREOF” (DANA-FARBER CANCER INSTITUTE, INC., priority 2019, published 2022).

Tests used:
[1] = tested on: other identified HDAC proteins; assay: Quantitative proteomics of cellular protein abundance in Kelly cells: other identified HDAC proteins; assay type: cell-based, human; conditions: 1 μM, 5 hours, compared to DMSO control
Method: (§1) Lysis buffer (8 M Urea, 50 mM NaCl, 50 mM 4-(2hydroxyethyl)-1-piperazineethanesulfonic acid (EPPS) pH 8.5, protease and phosphatase inhibitors from Roche®) were added to the cell pellets and homogenized by 20 passes through a 21 gauge (1.25 in. long) needle to achieve a cell lysate with a protein concentration between 1-4 mg mL^−1. A micro-BCA assay (Pierce™) was used to determine the final protein concentration in the cell lysate. 200 μg of protein for each sample were reduced and alkylated as described in Donovan et al., Elife 7:e38430 (2018).
(§2) Proteins were precipitated using methanol/chloroform. Four volumes of methanol were added to the cell lysate, followed by one volume of chloroform, and finally three volumes of water. The mixture was vortexed and centrifuged to separate the chloroform phase from the aqueous phase. The precipitated protein was washed with three volumes of methanol, centrifuged and the resulting washed precipitated protein was allowed to air dry. The precipitated protein was resuspended in 4 M Urea, 50 mM HEPES pH 7.4, followed by dilution to 1 M urea with the addition of 200 mM EPPS, pH 8. Proteins were first digested with LysC (1:50; enzyme:protein) for 12 hours at room temperature. The LysC digestion was diluted to 0.5 M Urea with 200 mM EPPS pH 8 followed by digestion with trypsin (1:50; enzyme:protein) for 6 hours at 37° C. Tandem mass tag (TMT) reagents (Thermo Fisher Scientific) were dissolved in anhydrous acetonitrile (ACN) according to manufacturer's instructions.
Anhydrous ACN was added to each peptide sample to a final concentration of 30% v/v, and labeling was induced with the addition of TMT reagent to each sample at a ratio of 1:4 peptide:TMT label. […] The sample channels were combined at a 1:1:1:1:1:1:1:1:1:1:1 ratio, desalted using C18 solid phase extraction cartridges (Waters®) and analyzed by LC-MS for channel ratio comparison. Samples were then combined using the adjusted volumes determined in the channel ratio analysis and dried down in a speed vacuum. […]

[2] = biological target: T1, full length human HDAC8-EGFP (Homo sapiens, UniProt Q9BY41); assay: HDAC8 reporter assay (HDAC8-EGFP with mCherry reporter); assay type: cell-based; conditions: 5 hour treatment, FIG. 6; hook effect at higher concentrations
T1 construct: Cells stably expressing the full length human HDAC8-EGFP with mCherry reporter; expressed in transfected cells; Cilantro2 vector (Addgene, 74450)
T1 sequence (Q9BY41 1-377): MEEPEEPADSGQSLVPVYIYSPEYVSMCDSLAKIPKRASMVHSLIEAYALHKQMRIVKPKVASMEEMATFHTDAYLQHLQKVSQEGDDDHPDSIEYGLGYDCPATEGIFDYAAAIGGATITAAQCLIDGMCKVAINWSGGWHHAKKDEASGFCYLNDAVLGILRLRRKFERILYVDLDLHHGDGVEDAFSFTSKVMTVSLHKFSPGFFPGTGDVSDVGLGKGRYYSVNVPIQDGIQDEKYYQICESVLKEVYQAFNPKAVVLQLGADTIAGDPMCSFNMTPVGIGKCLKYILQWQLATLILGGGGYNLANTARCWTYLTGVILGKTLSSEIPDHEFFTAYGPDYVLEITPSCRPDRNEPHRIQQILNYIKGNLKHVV
Method: Cells stably expressing the full length human HDAC8-EGFP with mCherry reporter in Cilantro2 vector (Addgene, 74450) were seeded at 30-50% confluency in 384-well plates with 50 μL FluoroBrite™ DMEM media (Thermo Fisher Scientific, A18967) containing 10% FBS per well a day before compound treatment. Compounds were dispensed using a D300e Digital Dispenser (HP), normalized to 0.5% DMSO, and incubated with cells for 5 hours. The assay plate was imaged immediately using an Acumen® High Content Imager (TTP Labtech) with 488 nm and 561 nm lasers in […] per well format. The resulting images were analyzed using CellProfiler™.
A series of image analysis steps (‘image analysis pipeline’) was constructed. First, the red and green channels were aligned and cropped to target the middle of each well (to avoid analysis of heavily clumped cells at the edges), and a background illumination function was calculated for both red and green channels of each well individually and subtracted to correct for illumination variations across the 384-well plate from various sources of error. An additional step was then applied to the green channel to suppress the analysis of large auto fluorescent artifacts and enhance the analysis of cell specific fluorescence by way of selecting for objects under a given size, 30 A.U., and with a given shape, speckles. mCherry-positive cells were then identified in the red channel filtering for objects between 8-60 pixels in diameter and using intensity to distinguish between clumped objects. The green channel was then segmented into GFP positive and negative areas and objects were labeled as GFP positive if at least 40% of it overlapped with a GFP positive area. The fraction of GFP-positive cells/mCherry-positive cells in each well was then calculated, and the green and red images were rescaled for visualization. The values for the concentrations that lead to a 50% degradation (DC50) were calculated using the nonlinear fit variable slope model in GraphPad Prism software.

HDAC6/8 = assay: Quantitative proteomics of cellular protein abundance in Kelly cells: HDAC6/8; assay type: cell-based, human; conditions: for change of cellular HDAC6/8 protein levels (heat map FIG. 3): 1 μM, 5 hours, compared to DMSO control; for reduction in HDAC6/8 protein levels compared to DMSO treated cells: moderated t-test, scatter plots FIG. 2A-2C, 4A-4B
Method: as §1, §2
Anhydrous ACN was added to each peptide sample to a final concentration of 30% v/v, and labeling was induced with the addition of TMT reagent to each sample at a ratio of 1:4 peptide:TMT label. The 10-plex labeling reactions were performed for 1.5 hours at room temperature and the reaction quenched by the addition of hydroxylamine to a final concentration of 0.3% for 15 minutes at room temperature. The sample channels were combined at a 1:1:1:1:1:1:1:1:1:1:1 ratio, desalted using C18 solid phase extraction cartridges (Waters®) and analyzed by LC-MS for channel ratio comparison. Samples were then combined using the adjusted volumes determined in the channel ratio analysis and dried down in a speed vacuum. The combined sample was then resuspended in 1% formic acid, and acidified (pH 2-3) before being subjected to desalting with C18 SPE (Sep-Pak®, Waters®). Samples were then offline fractionated into 96 fractions by high pH reverse-phase HPLC (Agilent® LC1260) through an aeris peptide xb-c18 column (Phenomenex®) with mobile phase A containing 5% acetonitrile and 10 mM NH4HCO3 in LC-MS grade H2O, and mobile phase B containing 90% acetonitrile and 10 mM NH4HCO3 in LC-MS grade H2O (both pH 8.0). The 96 resulting fractions were then pooled in a non-continuous manner into 24 fractions and these fractions were used for subsequent mass spectrometry analysis.
Data were collected using an Orbitrap Fusion™ Lumos™ mass spectrometer (Thermo Fisher Scientific, San Jose, Calif., USA) coupled with a Proxeon EASY-nLC™ 1200 LC pump (Thermo Fisher Scientific). Peptides were separated on an EasySpray™ ES803 75 μm inner diameter microcapillary column (ThermoFisher Scientific).
Each analysis used an MS3-based TMT method as described in McAlister et al., Anal. Chem. 86(14):7150-7158 (2014). The data were acquired using a mass range of m/z 340-1350, resolution 120,000, automatic gain control (AGC) target 1×10^6, maximum injection time 100 ms, dynamic exclusion of 120 seconds for the peptide measurements in the Orbitrap Fusion™ Lumos™ mass spectrometer. Data dependent MS2 spectra were acquired in the ion trap with a normalized collision energy (NCE) set at 55%, AGC target set to 1.5×10^5 and a maximum injection time of 150 ms. […]

degradation of GFP tagged HDAC8 in the reporter cell lines [2]	SMILES	change of cellular protein levels of the other identified HDAC proteins (heat map FIG. 3) [1]	change of cellular HDAC6/8 protein levels (heat map FIG. 3) (HDAC6/8)	reduction in HDAC6/8 protein levels compared to DMSO treated cells (HDAC6/8)
degradation of GFP tagged HDAC8	O=C(/C=C/c1ccc(CN(CCCCCNc2cccc3c2C(=O)N(C2CCC(=O)NC2=O)C3=O)CCc2c[nH]c3ccccc23)cc1)NO (stereo not drawn) [Compound 3, (E)-3-(4-(((2-(1H-indol-3-yl)ethyl)(5-((2-(2,6-dioxopiperidin-3-yl)-1,3-dioxoisoindolin-4-yl)amino)pentyl)amino)methyl)phenyl)-N-hydroxyacrylamide]	did not affect	induced down-regulation	significant reduction
degradation of GFP tagged HDAC8	O=C(/C=C/c1ccc(CN(CCOCCNc2cccc3c2C(=O)N(C2CCC(=O)NC2=O)C3=O)CCc2c[nH]c3ccccc23)cc1)NO (stereo not drawn) [Compound 2, (E)-3-(4-(((2-(1H-indol-3-yl)ethyl)(2-(2-((2-(2,6-dioxopiperidin-3-yl)-1,3-dioxoisoindolin-4-yl)amino)ethoxy)ethyl)amino)methyl)phenyl)-N-hydroxyacrylamide]	did not affect	induced down-regulation	significant reduction

SMILES	degradation of GFP tagged HDAC8 in the reporter cell lines [2]	change of cellular protein levels of the other identified HDAC proteins (heat map FIG. 3) [1]	change of cellular HDAC6/8 protein levels (heat map FIG. 3) (HDAC6/8)	reduction in HDAC6/8 protein levels compared to DMSO treated cells (HDAC6/8)
O=C(/C=C/c1ccc(CN(CCOCCOCCNc2cccc3c2C(=O)N(C2CCC(=O)NC2=O)C3=O)CCc2c[nH]c3ccccc23)cc1)NO (stereo not drawn) [Compound 1, (E)-3-(4-(((2-(1H-indol-3-yl)ethyl)(2-(2-(2-((2-(2,6-dioxopiperidin-3-yl)-1,3-dioxoisoindolin-4-yl)amino)ethoxy)ethoxy)ethyl)amino)methyl)phenyl)-N-hydroxyacrylamide]	degradation of GFP tagged HDAC8	did not affect	induced down-regulation	significant reduction
